Test results taken from patent US20020051978A1, “Methods and compositions for the identification, assessment, prevention and therapy of human cancers” (priority 2000, published 2002).
“And” between values parts separate entries of the source, which are not always exact repeats. Equal values may be shown once. Read-outs that look alike come from different tables or passages of the source.

Key:
[1] = tested on: 60 cancer cell lines (NCI 60 cancer cell line series); settings: cited from earlier work
[2] = tested on: 60 cancer cell lines (NCI 60 cancer cell line series); experiment: NCI-DTP in vitro cancer screen, sulforhodamine B (SRB) growth inhibition, 48 hour exposure; assay type: cell-based, human
Outline: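 Values come from the NCI-DTP screen database: -log GI50, the concentration giving 50% growth inhibition, derived from SRB cell-mass dose-response curves. Each line seeded at its own density, treated day 1 at five ten-fold-spaced doses in duplicate wells, stained after 48 h.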

SMILES: COc1cccc2c1C(=O)c1c(O)c3c(c(O)c1C2=O)C[C@@](O)(C(C)=O)C[C@@H]3O[C@H]1C[C@H](N)[C@H](O)[C@H](C)O1 [Daunorubicin]
- -Log (GI50) ([1]; Breast BT-549 (CL5013)): 6.8 and 6.7
- -Log (GI50) ([1]; Breast MCF7(I) (CL5001)): 8.1 and 8.0
- -Log (GI50) ([1]; Breast MCF7/ADRr (CL5002)): 5.3
- -Log (GI50) ([1]; Breast MDA-MB-231 CL5005): 6.7 and 6.9
- -Log (GI50) ([1]; Breast MDA-MB-435 (CL5011)): 6.7 and 6.9
- -Log (GI50) ([1]; Breast MDA-N CL5012): 6.8 and 7.1
- -Log (GI50) ([1]; Breast T-47D (CL5014)): 7.2 and 7.3
- -Log (GI50) ([1]; CNS SNB-19 (CL12002)): 7.4 and 7.7
- -Log (GI50) ([1]; CNS U251(I) CL12009): 7.5 and 7.8
- -Log (GI50) ([1]; Colon COLO-250 CL4010): 6.8
- -Log (GI50) ([1]; Colon HCC-2998 (CL4002)): 6.8 and 6.7
- -Log (GI50) ([1]; Colon HCT-15 CL4015): 6.2 and 5.9
- -Log (GI50) ([1]; Colon HCT-116 (CL4003)): 7.6 and 7.8
- -Log (GI50) ([1]; Colon SW-620 (CL4009)): 7.6 and 7.7
- -Log (GI50) ([1]; Leukemia CCRF-CEM(I) (CL7003)): 7.9 and 8.0
- -Log (GI50) ([1]; Leukemia HL-60(I) (CL7008)): 7.9 and 8.0
- -Log (GI50) ([1]; Leukemia MOLT-4 (CL7006)): 8.2 and 8.0
- -Log (GI50) ([1]; Leukemia SR CL7019): 8.1 and 8.0
- -Log (GI50) ([1]; Melanoma M14 (CL10014)): 6.8 and 7.1
- -Log (GI50) ([1]; Melanoma MALME-3M CL10002): 7.3 and 7.6
- -Log (GI50) ([1]; Melanoma SK-MEL-5 (CL10007)): 7.2 and 7.4
- -Log (GI50) ([1]; Melanoma SK-MEL-28 (CL10008)): 6.5 and 6.7
- -Log (GI50) ([1]; Melanoma UACC-257 (CL10021)): 6.7 and 6.9
- -Log (GI50) ([1]; NCSLC NCI-H522 CL1003): 7.3 and 7.5
- -Log (GI50) ([1]; NSCLC A549/ATCC (CL1004)): 7.3 and 7.6
- -Log (GI50) ([1]; NSCLC EKVX (CL1008)): 6.2 and 5.9
- -Log (GI50) ([1]; NSCLC HOP-62 (CL1026)): 7.6 and 7.8
- -Log (GI50) ([1]; NSCLC HOP-92 (CL1029)): 7.2 and 7.5
- -Log (GI50) ([1]; NSCLC NCI-H226 CL1013): 7.5
- -Log (GI50) ([1]; NSCLC NCI-H332M CL1017): 6.5 and 6.8
- -Log (GI50) ([1]; NSCLC NCI-H460 CL1021): 8.2 and 8.0
- -Log (GI50) ([1]; Ovarian OVCAR-3 CL6001): 6.8 and 7.0
- -Log (GI50) ([1]; Ovarian OVCAR-4 CL6002): 6.5 and 6.8
- -Log (GI50) ([1]; Renal A498 CL9013): 6.8 and 6.9
- -Log (GI50) ([1]; Renal RXF-393 CL9016): 6.8 and 7.0
- -Log (GI50) ([1]; Renal UO-31 CL9004): 6.4
- classification of cell line as Low(1), Medium(2) or High(3) sensitivity to compound ([2]; Breast BT-549 (CL5013)): 1
- classification of cell line as Low(1), Medium(2) or High(3) sensitivity to compound ([2]; Breast MCF7(I) (CL5001)): 3
- classification of cell line as Low(1), Medium(2) or High(3) sensitivity to compound ([2]; Breast MCF7/ADRr (CL5002)): 1
- classification of cell line as Low(1), Medium(2) or High(3) sensitivity to compound ([2]; Breast MDA-MB-231 CL5005): 1
- classification of cell line as Low(1), Medium(2) or High(3) sensitivity to compound ([2]; Breast MDA-MB-435 (CL5011)): 1
- classification of cell line as Low(1), Medium(2) or High(3) sensitivity to compound ([2]; Breast MDA-N CL5012): 1
- classification of cell line as Low(1), Medium(2) or High(3) sensitivity to compound ([2]; Breast T-47D (CL5014)): 2
- classification of cell line as Low(1), Medium(2) or High(3) sensitivity to compound ([2]; CNS SF-268 CL12014): 2
- classification of cell line as Low(1), Medium(2) or High(3) sensitivity to compound ([2]; CNS SF-295 CL12015): 2
- classification of cell line as Low(1), Medium(2) or High(3) sensitivity to compound ([2]; CNS SNB-19 (CL12002)): 2
- classification of cell line as Low(1), Medium(2) or High(3) sensitivity to compound ([2]; CNS SNB-75(I) CL12005): 2
- classification of cell line as Low(1), Medium(2) or High(3) sensitivity to compound ([2]; CNS U251(I) CL12009): 2
- classification of cell line as Low(1), Medium(2) or High(3) sensitivity to compound ([2]; Colon COLO-250 CL4010): 1
- classification of cell line as Low(1), Medium(2) or High(3) sensitivity to compound ([2]; Colon HCC-2998 (CL4002)): 1
- classification of cell line as Low(1), Medium(2) or High(3) sensitivity to compound ([2]; Colon HCT-15 CL4015): 1
- classification of cell line as Low(1), Medium(2) or High(3) sensitivity to compound ([2]; Colon HCT-116 (CL4003)): 2
- classification of cell line as Low(1), Medium(2) or High(3) sensitivity to compound ([2]; Colon HT29(I) CL4001): 2
- classification of cell line as Low(1), Medium(2) or High(3) sensitivity to compound ([2]; Colon SW-620 (CL4009)): 2
- classification of cell line as Low(1), Medium(2) or High(3) sensitivity to compound ([2]; Leukemia CCRF-CEM(I) (CL7003)): 3
- classification of cell line as Low(1), Medium(2) or High(3) sensitivity to compound ([2]; Leukemia HL-60(I) (CL7008)): 3
- classification of cell line as Low(1), Medium(2) or High(3) sensitivity to compound ([2]; Leukemia MOLT-4 (CL7006)): 3
- classification of cell line as Low(1), Medium(2) or High(3) sensitivity to compound ([2]; Leukemia SR CL7019): 3
- classification of cell line as Low(1), Medium(2) or High(3) sensitivity to compound ([2]; Melanoma M14 (CL10014)): 1
- classification of cell line as Low(1), Medium(2) or High(3) sensitivity to compound ([2]; Melanoma MALME-3M CL10002): 2
- classification of cell line as Low(1), Medium(2) or High(3) sensitivity to compound ([2]; Melanoma SK-MEL-5 (CL10007)): 2
- classification of cell line as Low(1), Medium(2) or High(3) sensitivity to compound ([2]; Melanoma SK-MEL-28 (CL10008)): 1
- classification of cell line as Low(1), Medium(2) or High(3) sensitivity to compound ([2]; Melanoma UACC-62 (CL10020)): 2
- classification of cell line as Low(1), Medium(2) or High(3) sensitivity to compound ([2]; Melanoma UACC-257 (CL10021)): 1
- classification of cell line as Low(1), Medium(2) or High(3) sensitivity to compound ([2]; NSCLC A549/ATCC (CL1004)): 2
- classification of cell line as Low(1), Medium(2) or High(3) sensitivity to compound ([2]; NSCLC EKVX (CL1008)): 1
- classification of cell line as Low(1), Medium(2) or High(3) sensitivity to compound ([2]; NSCLC HOP-62 (CL1026)): 2
- classification of cell line as Low(1), Medium(2) or High(3) sensitivity to compound ([2]; NSCLC HOP-92 (CL1029)): 2
- classification of cell line as Low(1), Medium(2) or High(3) sensitivity to compound ([2]; NSCLC NCI-H226 CL1013): 2
- sensitivity class NSCLC NCI-H23(I) CL1001 ([2]; cell line NSCLC NCI-H23(I), CL1001): 2
- sensitivity class NSCLC NCI-H332M CL1017 ([2]; cell line NSCLC NCI-H332M, CL1017): 1
- sensitivity class NSCLC NCI-H460 CL1021 ([2]; cell line NSCLC NCI-H460, CL1021): 3
- sensitivity class NSCLC NCI-H522 CL1003 ([2]; cell line NSCLC NCI-H522, CL1003): 2
- sensitivity class Ovarian IGROV1 CL6010 ([2]; cell line Ovarian IGROV1, CL6010): 2
- sensitivity class Ovarian OVCAR-3 CL6001 ([2]; cell line Ovarian OVCAR-3, CL6001): 1
- sensitivity class Ovarian OVCAR-4 CL6002 ([2]; cell line Ovarian OVCAR-4, CL6002): 1
- sensitivity class Ovarian OVCAR-5 CL6003 ([2]; cell line Ovarian OVCAR-5, CL6003): 1
- sensitivity class Ovarian OVCAR-8 CL6005 ([2]; cell line Ovarian OVCAR-8, CL6005): 2
- sensitivity class Prostate DU-145 CL11003 ([2]; cell line Prostate DU-145, CL11003): 2
- sensitivity class Prostate PC-3(I) CL11001 ([2]; cell line Prostate PC-3(I), CL11001): 2
- sensitivity class Renal 786-O CL9018 ([2]; cell line Renal 786-O, CL9018): 2
- sensitivity class Renal A498 CL9013 ([2]; cell line Renal A498, CL9013): 1
- sensitivity class Renal ACHN CL9023 ([2]; cell line Renal ACHN, CL9023): 2
- sensitivity class Renal CAKI-1 CL9015 ([2]; cell line Renal CAKI-1, CL9015): 2
- sensitivity class Renal RXF-393 CL9016 ([2]; cell line Renal RXF-393, CL9016): 1
- sensitivity class Renal SN12C CL9008 ([2]; cell line Renal SN12C, CL9008): 2
- sensitivity class Renal TK10 CL9024 ([2]; cell line Renal TK10, CL9024): 1
- sensitivity class Renal UO-31 CL9004 ([2]; cell line Renal UO-31, CL9004): 1
